# Columns and labels:
# Assay in all cases: kinase panel
# Format in all cases: biochemical
# ROCK-II(h) = ROCK-II(h) (Homo sapiens, UniProt O75116)
# Summary of the method: (§1)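 % inhibition read-out; kinome panel of 231 kinases; one analogue run on a selected 98-kinase subset only.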
# KDR(h) = KDR(h) (Homo sapiens, UniProt P35968)
# Summary of the method: as §1
# GCK(h) = molecular target: T1, GCK(h) (Homo sapiens, UniProt Q12851)
# T1 sequence (Q12851 1-820): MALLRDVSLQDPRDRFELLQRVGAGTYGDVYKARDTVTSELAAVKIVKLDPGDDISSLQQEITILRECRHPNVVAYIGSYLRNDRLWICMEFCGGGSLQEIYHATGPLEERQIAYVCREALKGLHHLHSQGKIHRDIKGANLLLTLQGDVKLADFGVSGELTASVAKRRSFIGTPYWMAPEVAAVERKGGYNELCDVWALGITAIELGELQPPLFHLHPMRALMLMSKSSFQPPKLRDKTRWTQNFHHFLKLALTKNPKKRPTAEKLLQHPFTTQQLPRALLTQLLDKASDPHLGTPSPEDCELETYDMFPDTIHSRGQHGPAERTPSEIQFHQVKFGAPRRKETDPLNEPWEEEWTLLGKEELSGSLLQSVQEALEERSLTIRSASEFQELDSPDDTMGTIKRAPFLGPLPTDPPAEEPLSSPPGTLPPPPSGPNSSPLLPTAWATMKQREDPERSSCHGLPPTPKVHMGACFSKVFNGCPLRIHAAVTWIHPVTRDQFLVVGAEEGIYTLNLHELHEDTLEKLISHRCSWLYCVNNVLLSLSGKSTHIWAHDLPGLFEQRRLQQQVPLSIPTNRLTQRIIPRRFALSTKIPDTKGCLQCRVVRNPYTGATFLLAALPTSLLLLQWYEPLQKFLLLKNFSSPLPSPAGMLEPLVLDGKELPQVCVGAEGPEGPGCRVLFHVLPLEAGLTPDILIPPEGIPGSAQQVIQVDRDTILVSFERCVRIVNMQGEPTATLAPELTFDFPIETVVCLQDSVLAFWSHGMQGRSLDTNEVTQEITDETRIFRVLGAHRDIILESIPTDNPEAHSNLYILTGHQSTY
# Summary of the method: as §1
# PKD2(h) = molecular target: T2, PKD2(h) (Homo sapiens, UniProt Q9BZL6)
# T2 sequence (Q9BZL6 1-878): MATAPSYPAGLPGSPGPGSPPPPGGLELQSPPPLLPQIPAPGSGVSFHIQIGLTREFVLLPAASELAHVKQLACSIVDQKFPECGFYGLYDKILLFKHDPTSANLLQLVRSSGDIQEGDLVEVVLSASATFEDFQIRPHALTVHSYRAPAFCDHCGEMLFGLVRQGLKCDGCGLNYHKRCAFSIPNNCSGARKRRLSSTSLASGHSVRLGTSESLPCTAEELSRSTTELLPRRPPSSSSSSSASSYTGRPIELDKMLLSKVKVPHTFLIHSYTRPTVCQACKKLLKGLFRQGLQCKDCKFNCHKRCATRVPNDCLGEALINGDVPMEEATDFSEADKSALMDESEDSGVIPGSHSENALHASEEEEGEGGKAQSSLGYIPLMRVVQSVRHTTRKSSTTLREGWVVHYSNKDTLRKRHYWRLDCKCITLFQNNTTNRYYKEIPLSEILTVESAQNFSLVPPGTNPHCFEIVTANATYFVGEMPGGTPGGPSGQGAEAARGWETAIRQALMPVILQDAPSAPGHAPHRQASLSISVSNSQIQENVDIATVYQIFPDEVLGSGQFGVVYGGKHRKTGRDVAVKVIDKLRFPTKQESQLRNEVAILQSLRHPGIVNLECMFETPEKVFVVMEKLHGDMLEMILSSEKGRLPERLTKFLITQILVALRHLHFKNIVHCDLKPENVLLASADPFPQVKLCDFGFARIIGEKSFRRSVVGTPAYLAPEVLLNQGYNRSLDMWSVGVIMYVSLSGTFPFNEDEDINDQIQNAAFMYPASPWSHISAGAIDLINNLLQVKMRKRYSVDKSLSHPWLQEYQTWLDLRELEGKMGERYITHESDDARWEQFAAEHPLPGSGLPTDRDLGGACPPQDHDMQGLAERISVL
# Summary of the method: as §1
# CaMKIV(h) = molecular target: T3, CaMKIV(h) (Homo sapiens, UniProt Q16566)
# T3 sequence (Q16566 1-473): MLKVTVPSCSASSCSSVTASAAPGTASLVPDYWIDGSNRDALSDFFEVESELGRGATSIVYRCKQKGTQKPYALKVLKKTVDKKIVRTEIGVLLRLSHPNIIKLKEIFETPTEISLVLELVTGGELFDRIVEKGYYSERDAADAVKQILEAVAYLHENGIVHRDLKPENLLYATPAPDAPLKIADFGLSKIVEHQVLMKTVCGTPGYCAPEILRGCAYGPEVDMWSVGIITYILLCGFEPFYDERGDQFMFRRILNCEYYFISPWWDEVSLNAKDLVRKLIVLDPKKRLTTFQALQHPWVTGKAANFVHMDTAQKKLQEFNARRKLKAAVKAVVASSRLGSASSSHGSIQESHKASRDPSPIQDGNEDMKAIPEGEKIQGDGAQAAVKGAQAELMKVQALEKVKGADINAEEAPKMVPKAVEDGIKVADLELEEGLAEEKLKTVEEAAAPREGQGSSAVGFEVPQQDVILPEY
# Summary of the method: as §1
# TrkA(h) = TrkA(h) (Homo sapiens, UniProt P04629)
# TrkA(h), sequence (P04629 33-796): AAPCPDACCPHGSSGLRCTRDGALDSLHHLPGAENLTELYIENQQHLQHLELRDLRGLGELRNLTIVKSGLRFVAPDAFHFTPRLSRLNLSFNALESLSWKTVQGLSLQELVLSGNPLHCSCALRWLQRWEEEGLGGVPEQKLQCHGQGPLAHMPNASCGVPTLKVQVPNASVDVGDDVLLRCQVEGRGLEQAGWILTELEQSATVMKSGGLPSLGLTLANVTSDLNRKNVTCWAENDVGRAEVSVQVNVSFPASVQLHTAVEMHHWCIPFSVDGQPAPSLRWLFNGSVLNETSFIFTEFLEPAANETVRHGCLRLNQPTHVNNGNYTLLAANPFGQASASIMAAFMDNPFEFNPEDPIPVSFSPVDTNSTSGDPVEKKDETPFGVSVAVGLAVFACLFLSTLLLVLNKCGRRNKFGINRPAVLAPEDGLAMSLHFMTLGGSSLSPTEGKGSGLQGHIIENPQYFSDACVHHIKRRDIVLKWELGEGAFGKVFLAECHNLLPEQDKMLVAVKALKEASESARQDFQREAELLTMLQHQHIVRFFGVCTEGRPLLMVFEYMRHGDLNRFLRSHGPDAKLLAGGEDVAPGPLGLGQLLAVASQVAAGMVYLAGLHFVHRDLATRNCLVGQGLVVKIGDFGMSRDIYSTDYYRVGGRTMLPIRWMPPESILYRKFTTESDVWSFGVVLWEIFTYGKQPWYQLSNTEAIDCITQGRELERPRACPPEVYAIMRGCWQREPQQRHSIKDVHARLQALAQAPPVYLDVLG
# Summary of the method: as §1
# PDGFRβ(h) = PDGFRβ(h) (Homo sapiens, UniProt P09619)
# Summary of the method: as §1
# GSK3β(h) = GSK3β(h) (Homo sapiens, UniProt P49841)
# GSK3β(h), sequence (P49841 whole entry): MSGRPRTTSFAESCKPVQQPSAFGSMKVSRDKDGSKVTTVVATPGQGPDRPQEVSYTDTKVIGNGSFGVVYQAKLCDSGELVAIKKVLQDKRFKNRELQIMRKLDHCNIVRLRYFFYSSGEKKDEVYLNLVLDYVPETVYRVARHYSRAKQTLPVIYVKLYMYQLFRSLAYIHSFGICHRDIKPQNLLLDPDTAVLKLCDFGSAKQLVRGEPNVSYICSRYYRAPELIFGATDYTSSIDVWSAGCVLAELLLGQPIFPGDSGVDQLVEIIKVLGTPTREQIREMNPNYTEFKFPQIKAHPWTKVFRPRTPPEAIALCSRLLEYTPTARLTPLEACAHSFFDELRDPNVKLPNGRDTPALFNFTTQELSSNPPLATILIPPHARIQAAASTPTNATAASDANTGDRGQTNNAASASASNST
# Summary of the method: as §1
# Lck(h) = Lck(h) (Homo sapiens, UniProt P06239)
# Lck(h), sequence (P06239 whole entry): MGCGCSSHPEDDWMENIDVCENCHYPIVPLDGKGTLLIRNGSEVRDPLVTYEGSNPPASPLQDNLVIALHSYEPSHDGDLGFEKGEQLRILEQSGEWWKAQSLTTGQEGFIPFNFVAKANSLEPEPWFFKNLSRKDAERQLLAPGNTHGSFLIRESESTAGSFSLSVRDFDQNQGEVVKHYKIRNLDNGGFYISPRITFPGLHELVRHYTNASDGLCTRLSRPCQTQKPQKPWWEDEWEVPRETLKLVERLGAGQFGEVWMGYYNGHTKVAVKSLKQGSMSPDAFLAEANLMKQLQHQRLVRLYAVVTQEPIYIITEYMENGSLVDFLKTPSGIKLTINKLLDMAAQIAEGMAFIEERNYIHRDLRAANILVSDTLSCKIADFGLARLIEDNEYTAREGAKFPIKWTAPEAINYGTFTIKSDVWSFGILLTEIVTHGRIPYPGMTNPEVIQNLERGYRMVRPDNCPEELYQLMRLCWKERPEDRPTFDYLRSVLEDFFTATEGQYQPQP
# Summary of the method: as §1
# ROCK-II(h), sequence (O75116 whole entry): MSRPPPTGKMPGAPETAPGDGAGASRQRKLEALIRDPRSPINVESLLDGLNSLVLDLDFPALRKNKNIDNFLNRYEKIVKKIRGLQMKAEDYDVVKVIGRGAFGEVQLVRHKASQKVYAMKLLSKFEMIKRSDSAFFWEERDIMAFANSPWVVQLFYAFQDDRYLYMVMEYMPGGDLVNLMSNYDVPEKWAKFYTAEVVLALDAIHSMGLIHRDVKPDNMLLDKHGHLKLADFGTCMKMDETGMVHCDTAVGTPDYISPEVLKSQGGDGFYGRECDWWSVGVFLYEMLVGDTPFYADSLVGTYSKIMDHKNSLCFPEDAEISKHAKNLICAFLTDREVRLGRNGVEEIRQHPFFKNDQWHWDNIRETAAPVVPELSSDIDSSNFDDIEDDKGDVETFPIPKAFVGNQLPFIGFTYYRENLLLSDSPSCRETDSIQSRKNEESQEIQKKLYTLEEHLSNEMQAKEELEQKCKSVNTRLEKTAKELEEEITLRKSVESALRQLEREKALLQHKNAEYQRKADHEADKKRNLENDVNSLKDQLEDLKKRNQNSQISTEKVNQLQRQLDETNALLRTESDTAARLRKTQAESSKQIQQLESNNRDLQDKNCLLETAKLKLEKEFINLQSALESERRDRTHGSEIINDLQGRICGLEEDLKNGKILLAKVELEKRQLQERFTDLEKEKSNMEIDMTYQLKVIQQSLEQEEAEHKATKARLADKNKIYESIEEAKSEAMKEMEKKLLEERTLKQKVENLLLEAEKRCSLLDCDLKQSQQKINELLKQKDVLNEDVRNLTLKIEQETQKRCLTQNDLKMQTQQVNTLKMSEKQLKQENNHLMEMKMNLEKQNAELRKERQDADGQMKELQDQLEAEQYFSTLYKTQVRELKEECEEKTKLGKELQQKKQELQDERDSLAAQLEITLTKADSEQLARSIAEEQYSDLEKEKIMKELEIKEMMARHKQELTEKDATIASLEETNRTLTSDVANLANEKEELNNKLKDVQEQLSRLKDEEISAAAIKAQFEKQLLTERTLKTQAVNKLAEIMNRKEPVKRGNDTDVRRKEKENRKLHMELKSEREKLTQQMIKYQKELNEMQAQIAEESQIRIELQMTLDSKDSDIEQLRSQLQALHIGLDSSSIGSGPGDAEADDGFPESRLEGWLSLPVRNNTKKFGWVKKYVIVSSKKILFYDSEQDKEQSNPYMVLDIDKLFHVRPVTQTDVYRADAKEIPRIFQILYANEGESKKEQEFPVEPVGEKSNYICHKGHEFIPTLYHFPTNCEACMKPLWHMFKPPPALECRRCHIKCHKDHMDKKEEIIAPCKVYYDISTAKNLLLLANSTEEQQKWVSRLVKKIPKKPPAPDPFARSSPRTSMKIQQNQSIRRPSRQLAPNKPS
# KDR(h), sequence (P35968 20-1356): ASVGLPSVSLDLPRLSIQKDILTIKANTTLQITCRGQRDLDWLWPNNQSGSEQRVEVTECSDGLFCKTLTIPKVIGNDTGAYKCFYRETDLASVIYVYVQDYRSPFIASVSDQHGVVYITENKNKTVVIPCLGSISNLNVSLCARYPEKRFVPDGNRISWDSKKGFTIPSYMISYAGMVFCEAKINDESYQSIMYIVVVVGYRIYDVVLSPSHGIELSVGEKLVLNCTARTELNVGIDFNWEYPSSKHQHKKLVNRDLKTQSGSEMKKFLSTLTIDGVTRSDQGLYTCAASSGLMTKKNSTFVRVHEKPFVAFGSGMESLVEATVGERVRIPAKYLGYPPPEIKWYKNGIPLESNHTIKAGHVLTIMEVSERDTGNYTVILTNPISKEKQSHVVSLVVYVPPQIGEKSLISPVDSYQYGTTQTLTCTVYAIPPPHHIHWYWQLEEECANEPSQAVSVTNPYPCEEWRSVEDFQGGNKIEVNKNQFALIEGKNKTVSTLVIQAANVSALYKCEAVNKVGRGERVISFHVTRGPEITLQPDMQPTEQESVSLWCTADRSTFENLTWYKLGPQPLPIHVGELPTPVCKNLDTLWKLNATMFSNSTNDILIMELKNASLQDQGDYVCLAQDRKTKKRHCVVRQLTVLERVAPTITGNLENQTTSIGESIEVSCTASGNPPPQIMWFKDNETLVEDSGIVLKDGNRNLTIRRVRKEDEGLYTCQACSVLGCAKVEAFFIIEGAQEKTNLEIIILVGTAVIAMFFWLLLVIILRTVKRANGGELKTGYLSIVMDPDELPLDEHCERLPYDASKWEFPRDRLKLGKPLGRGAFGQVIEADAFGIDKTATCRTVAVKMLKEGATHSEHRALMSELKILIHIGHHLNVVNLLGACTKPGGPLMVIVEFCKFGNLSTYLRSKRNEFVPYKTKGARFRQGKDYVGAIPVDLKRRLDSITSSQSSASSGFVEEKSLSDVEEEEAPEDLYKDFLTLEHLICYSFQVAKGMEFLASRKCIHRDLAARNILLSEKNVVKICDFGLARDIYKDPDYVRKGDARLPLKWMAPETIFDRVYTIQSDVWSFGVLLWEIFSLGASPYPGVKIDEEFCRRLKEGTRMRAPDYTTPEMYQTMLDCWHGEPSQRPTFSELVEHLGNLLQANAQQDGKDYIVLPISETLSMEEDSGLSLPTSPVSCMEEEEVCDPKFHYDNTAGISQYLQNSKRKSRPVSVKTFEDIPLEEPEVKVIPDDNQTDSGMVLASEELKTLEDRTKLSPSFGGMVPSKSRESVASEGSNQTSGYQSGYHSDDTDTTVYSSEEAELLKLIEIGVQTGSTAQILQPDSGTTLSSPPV
inhibition at 1 µM (ROCK-II(h)) [%],inhibition at 1 µM (KDR(h)) [%],inhibition at 1 µM (GCK(h)) [%],inhibition at 1 µM (PKD2(h)) [%],inhibition at 1 µM (CaMKIV(h)) [%],inhibition at 1 µM (TrkA(h)) [%],inhibition at 1 µM (PDGFRβ(h)) [%],inhibition at 1 µM (GSK3β(h)) [%],inhibition at 1 µM (Lck(h)) [%],Compound
58,42,86,-1,6,29,1,57,34,Nc1n[nH]c2ccc(-c3ccnc4[nH]c(-c5cccc(OCc6ccccc6)c5)cc34)cc12 [Compound 5r [SU1261]]
25,26,71,-5,-9,-11,-14,5,-19,Nc1n[nH]c2ccc(-c3ccnc4[nH]c(-c5ccnc(OCc6ccccc6)c5)cc34)cc12 [Compound 6g [SU1349]]
89,93,98,8,4,71,14,92,48,Nc1n[nH]c2ccc(-c3ccnc4[nH]c(-c5ccccc5)cc34)cc12 [Compound 4]

# Reference: paper PMC11314561, “Design and Synthesis of Novel Aminoindazole-pyrrolo[2,3-b]pyridine Inhibitors of IKKα That Selectively Perturb Cellular Non-Canonical NF-κB Signalling” (Molecules, 2024)
